Among the data in ChEMBL document CHEMBL1201862, “PubChem BioAssay data set” (2004) are IC50, EC50 and AC50 values, retold here.

The source made the active and inactive calls.

In experiment [1] the target is Nuclear receptor subfamily 0 group B member 1 (Homo sapiens, UniProt P51843). As to the kind of experiment: Luminescence-based cell-based high throughput dose response assay for inhibitors of the orphan nuclear receptor subfamily 0, group B, member 1 (DAX1; NR0B1). [Related pubchem assays (depositor defined):AID504766, AID504790]. Format: functional.
The subject of another experiment is H4. As to the kind of experiment: Luminescence Cell-Based Dose Response HTS to Identify Activators of 5'UTR Stem-Loop Driven Prion Protein mRNA Translation in H4 Neuroglioblastoma Cells. [Related pubchem assays: 1829 (Project Summary), 1814 (Primary HTS)]. Format: functional. Conditions: Homo sapiens.
A further experiment concerns HEK293. As to the kind of experiment: cells. Conditions: Homo sapiens. It counts as functional, cell-based.
Experiment [2] is described as follows: cells. Format: functional, cell-based.
A short description of experiment [3]: viability loss in HepG2 hepatoma cells – cell-based, ATP luminescence, cherry-pick, activator set 2, cytotoxicity control, dose response (AID 1053143). Format: functional.
A short description of experiment [4]: Luminescence Cell-Based Dose Response HTS to Identify Activators of Luciferase Translation or Activity in H4 […] Cells. [Related pubchem assays: 1829 (Project Summary), 1814 (Primary HTS)]. It counts as functional.
The nature of experiment [5]: cells. It counts as functional, cell-based. This is another data set of the same source.
Experiment [6] in a line: Luminescence Cell-Based Dose Confirmation HTS to Identify Activators of 5'UTR Stem-Loop Driven Alpha-Synuclein mRNA Translation in H4 Neuroglioblastoma Cells. [Related pubchem assays: 1829 (Project Summary), 1814 (Primary HTS)]. Format: functional.
Experiment [7] has as its system HeLa. As to the kind of experiment: ATP-based viability loss in HeLa cells – cell-based, CellTiter-Glo luminescence, cherry-pick samples, cytotoxicity control for MITF activator project, dose response (AID 540259). Format: functional. Conditions: Homo sapiens. A general note: Cellular ATP, detected with luciferase, serves as a proxy for viable cell number.
Experiment [8] deals with T1, Rac GTPase-activating protein 1 (Homo sapiens, UniProt Q9H0H5).
T1 sequence (Q9H0H5 whole entry): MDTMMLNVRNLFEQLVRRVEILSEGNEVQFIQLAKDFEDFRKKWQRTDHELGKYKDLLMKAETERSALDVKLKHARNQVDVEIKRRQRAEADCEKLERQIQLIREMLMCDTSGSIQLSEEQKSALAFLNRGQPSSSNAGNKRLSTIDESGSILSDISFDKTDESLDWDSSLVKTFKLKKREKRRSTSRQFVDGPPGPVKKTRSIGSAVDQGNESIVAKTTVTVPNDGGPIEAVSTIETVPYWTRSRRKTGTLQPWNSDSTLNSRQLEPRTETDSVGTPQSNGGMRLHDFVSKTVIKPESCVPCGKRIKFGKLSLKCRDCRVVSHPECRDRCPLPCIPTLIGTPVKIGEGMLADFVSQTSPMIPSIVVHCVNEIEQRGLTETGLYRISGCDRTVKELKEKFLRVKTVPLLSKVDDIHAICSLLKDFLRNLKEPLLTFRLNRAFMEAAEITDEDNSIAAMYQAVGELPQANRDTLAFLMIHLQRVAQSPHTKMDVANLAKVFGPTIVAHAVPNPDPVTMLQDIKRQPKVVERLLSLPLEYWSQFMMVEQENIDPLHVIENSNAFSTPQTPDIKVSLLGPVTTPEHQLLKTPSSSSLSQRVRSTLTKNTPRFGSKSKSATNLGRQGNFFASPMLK
As to the kind of experiment: blockers of MgcRacGAP-driven Rac1 GTP hydrolysis – biochemical, ADP Hunter fluorescence, primary and confirmatory, confirmation (AID 624330). It counts as functional.

In experiment [9] the target is T2, Potassium voltage-gated channel subfamily KQT member 4 (Homo sapiens, UniProt P56696). As to the kind of experiment: activation of KCNQ4 potassium current – automated patch clamp, CHO cells, selectivity assay for KCNQ2 activator project, dose response (AID 493043). Format: functional, cell-based. Background: In patch-clamp work, channel activity is measured electrically.

The target of experiment [10] is Potassium voltage-gated channel subfamily KQT member 2/member 3 (Rattus norvegicus, UniProt O88943+O88944). As to the kind of experiment: Mode of action assay-Dose response assay for KCNQ2 activators in the KCNQ2/KCNQ3 co-expressing cells on automated patch clamp. [Related pubchem assays (depositor defined):AID2239, AID2258, AID2287]. Format: functional.
Experiment [11] addresses Potassium voltage-gated channel subfamily KQT member 2 (Rattus norvegicus, UniProt O88943). As to the kind of experiment: Mode of action assay-Dose response assay for compounds that activate KCNQ2 potassium channels on automated patch clamp. [Related pubchem assays (depositor defined):AID2239, AID2258, AID2287, AID493113]. Format: functional.
Experiment [12] concerns the target T2, Potassium voltage-gated channel subfamily KQT member 4. As to the kind of experiment: KCNQ4 thallium flux concentration-response – KCNQ4-expressing cells, selectivity assay for KCNQ2 activator project, dose response (AID 504416). It counts as functional, cell-based.
For experiment [13], the target named is T3, Short transient receptor potential channel 4 (Mus musculus, UniProt Q9QUQ5).
T3 sequence (Q9QUQ5 whole entry): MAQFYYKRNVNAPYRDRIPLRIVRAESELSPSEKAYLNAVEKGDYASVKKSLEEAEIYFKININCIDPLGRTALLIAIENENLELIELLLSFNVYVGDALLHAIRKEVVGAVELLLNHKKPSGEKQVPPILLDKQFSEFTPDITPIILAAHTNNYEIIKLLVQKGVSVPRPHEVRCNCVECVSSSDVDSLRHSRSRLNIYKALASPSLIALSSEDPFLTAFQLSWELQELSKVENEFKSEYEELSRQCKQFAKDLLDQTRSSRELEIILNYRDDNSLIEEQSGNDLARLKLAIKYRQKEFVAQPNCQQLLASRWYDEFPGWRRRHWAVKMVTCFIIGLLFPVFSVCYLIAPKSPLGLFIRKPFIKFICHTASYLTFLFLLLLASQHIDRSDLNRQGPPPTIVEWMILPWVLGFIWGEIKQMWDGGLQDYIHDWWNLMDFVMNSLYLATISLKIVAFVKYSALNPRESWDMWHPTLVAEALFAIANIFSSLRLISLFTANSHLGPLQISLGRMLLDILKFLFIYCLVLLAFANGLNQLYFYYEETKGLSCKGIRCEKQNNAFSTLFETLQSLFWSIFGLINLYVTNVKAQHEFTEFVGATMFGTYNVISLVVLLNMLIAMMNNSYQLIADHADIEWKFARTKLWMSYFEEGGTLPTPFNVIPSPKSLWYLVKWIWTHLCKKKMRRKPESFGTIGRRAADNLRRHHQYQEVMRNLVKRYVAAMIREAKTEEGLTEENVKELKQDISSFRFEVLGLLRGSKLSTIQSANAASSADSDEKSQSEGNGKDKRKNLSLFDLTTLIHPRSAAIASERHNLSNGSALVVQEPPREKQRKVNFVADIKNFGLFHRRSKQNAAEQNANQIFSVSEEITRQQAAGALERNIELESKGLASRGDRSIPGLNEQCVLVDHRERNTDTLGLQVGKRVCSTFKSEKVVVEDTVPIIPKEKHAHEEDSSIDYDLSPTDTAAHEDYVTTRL
As to the kind of experiment: SAR Analysis for the identification of selective inhibitors of the transient receptor potential cation channel C4 (TRPC4): TRPC4 Serotonin Receptor CRC MPD assay. [Related pubchem assays (depositor defined):AID2247, AID2256]. Format: functional.

Experiment [14] addresses Short transient receptor potential channel 6 (Mus musculus, UniProt Q61143). As to the kind of experiment: mouse TRPC6 channel blockers, concentration series – HEK293 cells, membrane potential dye, IC50, selectivity assay for selective TRPC4 inhibitor project, dose response (AID 492987). It counts as functional, cell-based.
The target of experiment [15] is T3, Short transient receptor potential channel 4. As to the kind of experiment: mouse TRPC4 block via Gq-coupled stimulation – cell-based, acetylcholine stimulus, HEK293 TRPC4, Fluo-4, SAR follow-up (AID 492996). It counts as functional.
Experiment [16] shares this target. As to the kind of experiment: SAR Analysis for the identification of selective inhibits of the transient receptor potential cation channel C4 (TRPC4): Automated Electrophysiology. [Related pubchem assays (depositor defined):AID2256]. It counts as functional.
Experiment [17] shares this target. As to the kind of experiment: potency of mouse TRPC4 calcium flux blockers – cell-based, HEK293 TRPC4/mu-opioid, DAMGO stimulus, Fluo-4, dose response (AID 492994). It counts as functional.
Experiment [18] concerns the target Acyl-homoserine lactone acylase PvdQ (Pseudomonas aeruginosa (strain LESB58), UniProt Q9I194). As to the kind of experiment: PvdQ acylase enzyme activity blockers – biochemical, fluorescence, plate reader and imaging, cherry-picks, dose response (AID 493231).
Experiment [19] has as its system HeLa. As to the kind of experiment: toxicity to human HeLa cells – cell-based, 48 h, plate reader, cherry-picks, cytotoxicity control, dose response (AID 504942). Format: functional.
Experiment [20] deals with Dual specificity protein kinase CLK1 (Homo sapiens, UniProt P49759). As to the kind of experiment: inhibition of human CLK1 activity – biochemical, cherry-picked samples, selectivity assay for Dyrk1A inhibitor project, dose response (AID 588811).
The next experiment deals with Beta-galactosidase (Escherichia coli, UniProt Q8VNN2). As to the kind of experiment: PubChem AID 485352. It counts as functional.
For experiment [21], the target named is Type-1 angiotensin II receptor (Homo sapiens, UniProt P30556). As to the kind of experiment: antagonism of angiotensin II type 1 receptor – cell-based, uHTS hits, selectivity assay for APJ receptor antagonist project, dose response (AID 463214).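 Note: antagonist potency against angiotensin II stimulated AT1 response.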 Format: functional.
A further experiment addresses Cytochrome P450 2C19 (Homo sapiens, UniProt P33261). As to the kind of experiment: Cytochrome panel assay with activity outcomes. Panel member name: p450-cyp2c19 Compounds with AC50 equal or less than 10 uM are considered active. It counts as functional. The conditions noted are these: read-out: AC50.
The target in the next experiment is T4, Cytochrome P450 1A2 (Homo sapiens, UniProt P05177).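 Note: PubChem cytochrome P450 panel assay, CYP1A2 panel member.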
T4 sequence (P05177 whole entry): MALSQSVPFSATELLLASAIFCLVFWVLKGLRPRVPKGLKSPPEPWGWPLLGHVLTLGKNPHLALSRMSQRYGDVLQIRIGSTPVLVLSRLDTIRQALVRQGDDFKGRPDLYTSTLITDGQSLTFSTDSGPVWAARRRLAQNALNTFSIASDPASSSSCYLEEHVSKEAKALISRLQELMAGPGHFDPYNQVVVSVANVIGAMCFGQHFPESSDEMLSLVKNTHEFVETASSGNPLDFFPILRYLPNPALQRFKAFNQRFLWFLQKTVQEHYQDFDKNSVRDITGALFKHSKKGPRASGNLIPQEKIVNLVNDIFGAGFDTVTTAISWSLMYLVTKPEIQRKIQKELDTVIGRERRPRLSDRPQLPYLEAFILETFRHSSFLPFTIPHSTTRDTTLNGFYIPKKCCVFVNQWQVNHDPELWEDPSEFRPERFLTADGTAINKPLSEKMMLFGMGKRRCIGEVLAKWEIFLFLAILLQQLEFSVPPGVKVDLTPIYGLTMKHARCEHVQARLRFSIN

For experiment [22], the target named is Voltage-gated inwardly rectifying potassium channel KCNH2 (Homo sapiens, UniProt Q12809). The conditions noted are these: Potency.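 Note: confirmatory quantitative high-throughput screen measuring inhibition of hERG channel activity.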
Sequence of Voltage-gated inwardly rectifying potassium channel KCNH2 (Q12809 whole entry): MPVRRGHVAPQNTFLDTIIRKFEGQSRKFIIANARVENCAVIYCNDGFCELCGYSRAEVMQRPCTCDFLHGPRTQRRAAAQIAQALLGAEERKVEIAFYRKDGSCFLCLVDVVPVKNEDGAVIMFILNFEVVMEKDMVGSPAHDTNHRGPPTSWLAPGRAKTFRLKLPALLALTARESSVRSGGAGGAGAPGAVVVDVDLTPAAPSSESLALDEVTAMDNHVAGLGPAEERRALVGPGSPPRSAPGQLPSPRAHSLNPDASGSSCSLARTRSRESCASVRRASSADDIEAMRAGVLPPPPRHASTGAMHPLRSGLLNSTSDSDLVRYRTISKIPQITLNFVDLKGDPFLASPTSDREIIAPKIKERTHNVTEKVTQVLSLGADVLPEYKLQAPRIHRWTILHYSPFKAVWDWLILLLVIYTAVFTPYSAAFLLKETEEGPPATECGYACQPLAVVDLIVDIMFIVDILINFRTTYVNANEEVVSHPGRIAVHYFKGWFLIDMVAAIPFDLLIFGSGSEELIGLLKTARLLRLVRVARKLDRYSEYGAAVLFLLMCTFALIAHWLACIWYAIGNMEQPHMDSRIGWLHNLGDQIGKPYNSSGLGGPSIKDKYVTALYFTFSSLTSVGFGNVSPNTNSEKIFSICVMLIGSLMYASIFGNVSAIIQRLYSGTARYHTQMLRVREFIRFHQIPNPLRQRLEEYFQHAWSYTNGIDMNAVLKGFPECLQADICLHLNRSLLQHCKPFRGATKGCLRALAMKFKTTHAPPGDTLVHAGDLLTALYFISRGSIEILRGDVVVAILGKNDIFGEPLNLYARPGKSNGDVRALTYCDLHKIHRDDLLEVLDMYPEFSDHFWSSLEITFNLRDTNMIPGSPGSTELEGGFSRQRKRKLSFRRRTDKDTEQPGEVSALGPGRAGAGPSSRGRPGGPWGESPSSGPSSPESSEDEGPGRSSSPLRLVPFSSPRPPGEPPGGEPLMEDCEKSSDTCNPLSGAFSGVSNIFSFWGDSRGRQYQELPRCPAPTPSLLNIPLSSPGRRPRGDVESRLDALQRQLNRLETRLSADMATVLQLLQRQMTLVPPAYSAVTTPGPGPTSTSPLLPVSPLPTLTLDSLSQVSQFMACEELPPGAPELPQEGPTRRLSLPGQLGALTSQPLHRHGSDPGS

T2 sequence (P56696 whole entry): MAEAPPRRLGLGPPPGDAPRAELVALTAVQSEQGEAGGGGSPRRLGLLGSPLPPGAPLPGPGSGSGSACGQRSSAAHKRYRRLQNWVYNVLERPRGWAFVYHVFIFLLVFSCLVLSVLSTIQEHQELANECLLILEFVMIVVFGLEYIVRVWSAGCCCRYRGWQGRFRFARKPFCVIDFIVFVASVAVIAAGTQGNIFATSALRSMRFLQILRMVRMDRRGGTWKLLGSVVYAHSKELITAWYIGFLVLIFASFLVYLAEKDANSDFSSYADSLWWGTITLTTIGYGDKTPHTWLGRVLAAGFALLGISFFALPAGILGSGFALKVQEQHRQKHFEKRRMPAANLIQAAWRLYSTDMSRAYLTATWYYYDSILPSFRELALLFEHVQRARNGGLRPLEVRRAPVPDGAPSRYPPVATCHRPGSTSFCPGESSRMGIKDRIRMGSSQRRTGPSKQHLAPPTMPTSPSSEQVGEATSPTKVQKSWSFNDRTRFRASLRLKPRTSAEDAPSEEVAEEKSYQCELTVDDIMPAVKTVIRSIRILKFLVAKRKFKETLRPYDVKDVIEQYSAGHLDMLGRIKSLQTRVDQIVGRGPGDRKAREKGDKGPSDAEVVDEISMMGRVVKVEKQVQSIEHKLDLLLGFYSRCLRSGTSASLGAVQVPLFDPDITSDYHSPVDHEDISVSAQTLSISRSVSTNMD
Sequence of Potassium voltage-gated channel subfamily KQT member 2/member 3 (O88943 whole entry): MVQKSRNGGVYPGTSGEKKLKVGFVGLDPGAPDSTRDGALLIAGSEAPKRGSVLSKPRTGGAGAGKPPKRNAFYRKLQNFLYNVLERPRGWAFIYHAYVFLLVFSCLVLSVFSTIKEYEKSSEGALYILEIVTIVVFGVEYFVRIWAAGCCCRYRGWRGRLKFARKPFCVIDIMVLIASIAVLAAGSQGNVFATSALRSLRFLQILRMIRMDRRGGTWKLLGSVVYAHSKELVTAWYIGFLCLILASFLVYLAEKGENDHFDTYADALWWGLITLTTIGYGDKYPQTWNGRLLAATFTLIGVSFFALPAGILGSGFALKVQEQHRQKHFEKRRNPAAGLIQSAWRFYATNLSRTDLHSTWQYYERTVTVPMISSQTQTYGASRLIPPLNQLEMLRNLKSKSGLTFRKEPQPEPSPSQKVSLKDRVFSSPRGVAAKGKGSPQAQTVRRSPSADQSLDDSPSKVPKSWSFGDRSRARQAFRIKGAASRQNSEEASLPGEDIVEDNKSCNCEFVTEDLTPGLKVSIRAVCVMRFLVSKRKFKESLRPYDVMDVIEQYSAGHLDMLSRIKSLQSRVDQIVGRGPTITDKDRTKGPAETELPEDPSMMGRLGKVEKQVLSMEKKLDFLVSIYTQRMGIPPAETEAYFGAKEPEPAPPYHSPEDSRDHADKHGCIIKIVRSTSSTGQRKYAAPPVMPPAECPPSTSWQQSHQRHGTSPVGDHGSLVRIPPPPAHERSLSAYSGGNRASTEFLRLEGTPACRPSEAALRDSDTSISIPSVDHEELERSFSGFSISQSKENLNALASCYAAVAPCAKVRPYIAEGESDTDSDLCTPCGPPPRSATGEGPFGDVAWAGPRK
Sequence of Potassium voltage-gated channel subfamily KQT member 2/member 3 (O88944 whole entry): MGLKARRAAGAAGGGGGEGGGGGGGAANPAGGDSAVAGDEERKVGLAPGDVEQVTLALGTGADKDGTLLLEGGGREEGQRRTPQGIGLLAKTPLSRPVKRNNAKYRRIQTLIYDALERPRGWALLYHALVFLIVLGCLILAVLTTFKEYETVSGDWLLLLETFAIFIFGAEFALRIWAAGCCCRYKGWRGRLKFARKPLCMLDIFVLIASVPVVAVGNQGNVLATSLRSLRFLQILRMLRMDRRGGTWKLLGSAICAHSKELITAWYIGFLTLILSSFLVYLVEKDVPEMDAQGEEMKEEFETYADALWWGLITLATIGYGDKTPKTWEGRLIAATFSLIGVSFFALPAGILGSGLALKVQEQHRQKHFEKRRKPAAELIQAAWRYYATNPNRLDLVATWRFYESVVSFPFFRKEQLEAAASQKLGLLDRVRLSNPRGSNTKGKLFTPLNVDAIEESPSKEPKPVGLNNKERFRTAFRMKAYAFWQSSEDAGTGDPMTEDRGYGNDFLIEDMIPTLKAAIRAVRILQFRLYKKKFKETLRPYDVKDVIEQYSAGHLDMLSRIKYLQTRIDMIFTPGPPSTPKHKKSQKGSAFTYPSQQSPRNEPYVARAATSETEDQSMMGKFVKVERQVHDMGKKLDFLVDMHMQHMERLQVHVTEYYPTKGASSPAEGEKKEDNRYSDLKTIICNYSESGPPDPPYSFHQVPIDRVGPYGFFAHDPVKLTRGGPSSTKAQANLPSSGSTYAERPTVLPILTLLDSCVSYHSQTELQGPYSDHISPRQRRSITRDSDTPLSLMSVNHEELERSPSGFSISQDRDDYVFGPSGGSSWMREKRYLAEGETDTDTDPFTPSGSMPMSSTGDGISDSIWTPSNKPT
Sequence of Potassium voltage-gated channel subfamily KQT member 2 (O88943 whole entry): as the sequence (O88943 whole entry) above
Sequence of Short transient receptor potential channel 6 (Q61143 whole entry): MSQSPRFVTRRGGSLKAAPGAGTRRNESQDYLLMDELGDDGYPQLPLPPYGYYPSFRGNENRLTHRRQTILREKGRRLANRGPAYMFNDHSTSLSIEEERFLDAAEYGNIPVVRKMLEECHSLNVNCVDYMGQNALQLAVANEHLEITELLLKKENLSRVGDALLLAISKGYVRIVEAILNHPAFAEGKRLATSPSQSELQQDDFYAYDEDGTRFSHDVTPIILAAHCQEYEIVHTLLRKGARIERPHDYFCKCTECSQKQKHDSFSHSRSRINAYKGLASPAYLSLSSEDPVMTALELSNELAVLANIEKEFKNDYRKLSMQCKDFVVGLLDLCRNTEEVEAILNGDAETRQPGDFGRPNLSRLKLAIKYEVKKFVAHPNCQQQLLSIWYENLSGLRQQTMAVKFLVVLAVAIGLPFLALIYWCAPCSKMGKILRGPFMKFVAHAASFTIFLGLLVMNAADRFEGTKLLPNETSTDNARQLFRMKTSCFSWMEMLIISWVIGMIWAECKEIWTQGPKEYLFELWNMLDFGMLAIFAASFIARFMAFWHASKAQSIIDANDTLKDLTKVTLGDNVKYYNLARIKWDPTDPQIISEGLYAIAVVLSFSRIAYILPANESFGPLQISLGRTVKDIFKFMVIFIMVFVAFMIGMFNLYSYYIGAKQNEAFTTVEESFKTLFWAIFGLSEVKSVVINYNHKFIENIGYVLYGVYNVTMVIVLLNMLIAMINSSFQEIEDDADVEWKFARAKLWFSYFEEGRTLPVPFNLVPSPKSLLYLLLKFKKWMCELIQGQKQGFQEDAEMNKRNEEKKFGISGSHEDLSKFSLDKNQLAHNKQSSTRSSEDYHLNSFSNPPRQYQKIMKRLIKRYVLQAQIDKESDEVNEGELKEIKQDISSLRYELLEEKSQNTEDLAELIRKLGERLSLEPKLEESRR
Sequence of Cytochrome P450 2C19 (P33261 whole entry): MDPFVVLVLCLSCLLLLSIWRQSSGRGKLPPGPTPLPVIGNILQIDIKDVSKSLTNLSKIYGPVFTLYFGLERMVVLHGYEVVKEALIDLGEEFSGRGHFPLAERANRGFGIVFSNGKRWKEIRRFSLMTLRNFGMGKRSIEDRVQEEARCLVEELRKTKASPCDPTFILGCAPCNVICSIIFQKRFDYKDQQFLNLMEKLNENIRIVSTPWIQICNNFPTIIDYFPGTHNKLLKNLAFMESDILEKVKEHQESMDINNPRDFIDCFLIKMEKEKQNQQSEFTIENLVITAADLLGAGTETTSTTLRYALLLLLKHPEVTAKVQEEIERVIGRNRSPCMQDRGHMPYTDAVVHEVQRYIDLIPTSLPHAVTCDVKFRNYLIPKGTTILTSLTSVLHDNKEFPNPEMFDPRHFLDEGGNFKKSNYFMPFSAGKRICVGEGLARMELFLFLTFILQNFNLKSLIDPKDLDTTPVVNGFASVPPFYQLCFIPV

As a reminder, the IC50 is the midpoint of a concentration-inhibition curve. What is called EC50 is the concentration that produces a half-maximal response. A word on the AC50: it is the midpoint of the concentration-response curve, whichever way the signal moves. For the molecule `O=C(Nc1ccccc1O)c1ccc(NC(=O)C2CC2)cc1`, the IC50 was > 67.6 µM (inactive) in [1] and 1.91 µM (active) with HEK293. Besides, the EC50 with H4 is 12.3 µM (active); in the experiment “cells [2]” it was 51.3 µM (active); in experiment [4], 17.3 µM (active); in “cells [5]” it was 11.2 µM (active); in experiment [6], 10.5 µM (active). For the same molecule, in experiment [3], the AC50 is 18.8 µM (active).

For `O=C(Nc1ccc(O)cc1)c1cc2ccccc2c(=O)s1`, the AC50 in the experiment with HeLa [7] was > 350 µM (inactive). The concentration for half-maximal inhibition (IC50) in experiment [8] was 23.3 µM (active).

For `CCCCC(=O)Nc1c(C)cc(C)cc1Cl`, the EC50 in [9] is 3.15 µM (active); in [10], 2.69 µM (active); in experiment [11], 2.14 µM (active); in [12] it was 18.7 µM (active).

For the molecule `CCc1ccc2nc(N3CCCC3)cc(C)c2c1`, the half-maximal inhibitory concentration (IC50) was 4.23 µM (active) in experiment [13]; 14.1 µM (active) in experiment [14]; 9.52 µM (active) in experiment [15]; 2.05 µM (active) in experiment [16]; 0.483 µM (active) in [17].

As for `O=C(Nc1ncc([N+](=O)[O-])s1)c1cccc([N+](=O)[O-])c1`, the values for the half-maximal activity concentration (AC50) (in [18]; in the experiment with HeLa [19]) were 10.3 µM (active) and 23.1 µM (active), respectively.

Consider `CN(C)S(=O)(=O)c1ccc(Cl)c(C(=O)Nc2cccc3ncccc23)c1`, for which, in experiment [20], the AC50 is 1.84 µM (active).

Consider `CC(=O)Oc1ccc(/C=C2/SC(=S)N(Cc3ccccc3)C2=O)cc1`, for which the EC50 on Beta-galactosidase is > 40 µM (inactive). In experiment [21], the IC50 was > 40 µM (not active).

With `COc1ccc2c(c1)c(CC(=O)N1CCOCC1)c(C)n2C(=O)c1ccc(Cl)cc1` [INDOMETHACIN MORPHOLINYLAMIDE], the AC50 is 1.58 µM (inconclusive) on Cytochrome P450 2C19, 25.1 µM (inconclusive) at Cytochrome P450 1A2 and 35.5 µM (inconclusive) in experiment [22].
